Results from patent US20220153732A1, “PROTEIN SECRETION INHIBITORS” (KEZAR LIFE SCIENCES, priority 2019, published 2022).
pEC50, pIC50: −log10 of the molar value.

How the values were obtained:
Format in all cases: cell-based
[1] = system: human multiple myeloma cell line U266B1; test: U266 Cell Viability Assay; details: U-266, 48 hr, U266B1 cells, Celltiter-Glo, read-out: 48 hr U266 Viability Celltiter-Glo: Mean EC50
In short: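 Viability measured by CellTiter-Glo luciferase signal after 48 h compound exposure (37 °C, 5% CO2) of U266B1 cells in 384-well format. Where stereochemistry is not shown, data refer to the stereoisomer mixture.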

[2] = system: IL-2-FL/Gaussia Luciferase; test: Dox Induced IL2-FL-Gluc Assay; details: 24 hr, doxycycline-induced, 293FRT/TO cells; read-out: 24 hr Dox Inducible IL2FLGIuc 293FRT/TO: Mean IC50
In short: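 Compounds were added together with doxycycline in DMSO/media and incubated at 37° C., 5% CO2. The cells were a stably selected line carrying IL-2-FL/Gaussia luciferase under T-REx inducible control. Structures drawn without stereochemistry were tested as stereoisomer mixtures.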

[3] = system: human multiple myeloma cell line NCI-H929; test: H929 Cell Viability Assay; details: 48 hr, NCI-H929 cells, Celltiter-Glo, read-out: 48 hr H929 Viability Celltiter-Glo: Mean EC50
Method: Plates were incubated at 37° C., 5% CO2 for 48 hours. After 48 hours, Celltiter-Glo® (Promega) was added to each well and luciferase signal was quantified using Tecan Infinite M1000 Pro for cell viability determination.
For chemical structures that include one or more stereoisomers, but are illustrated without indicating stereochemistry, the assay data refers to a mixture of stereoisomers.

[4] = system: HER3-ss+4aa/Gaussia Luciferase; test: Dox-Induced Her3-ss-Gluc Assay; details: 24 hr, doxycycline-induced, 293FRT/TO cells; read-out: 24 hr Dox Inducible Her3(ss + 4)Gluc 293FRT/TO: Mean IC50
In short: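 Compounds, diluted in DMSO/media containing doxycycline, were incubated at 37° C., 5% CO2 with cells seeded one day earlier. The cells stably express HER3-ss+4aa/Gaussia luciferase under T-REx control. Where no stereochemistry is shown, data refer to the mixture of stereoisomers.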

[5] = system: PD1-ss+10aa/Gaussia Luciferase; test: Dox-Induced PD1-ss-Gluc Assay; details: 24 hr, doxycycline-induced, 293FRT/TO cells; read-out: 24 hr Dox Inducible PD1ssGluc 293FRT/TO: Mean IC50
In short: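 Compounds, diluted in DMSO/media with doxycycline, were added to cells plated a day earlier and kept at 37° C under 5% CO2. The cells stably express a Gaussia luciferase construct fused to PD1-ss+10aa, induced via the T-REx system. Unassigned stereochemistry means mixture data.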

[6] = system: TNFα-FL/Gaussia Luciferase; test: Dox Induced TNFα-FL-Gluc Assay; details: 24 hr, doxycycline-induced, 293FRT/TO cells; read-out: 24 hr Dox Inducible TNFaFLGluc 293FRT/TO: Mean IC50
In short: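 Compounds were added in doxycycline-containing DMSO/media to cells plated the previous day and incubated at 37° C under 5% CO2. These cells stably express a TNFα-FL/Gaussia luciferase cDNA whose expression is under T-REx (Dox-inducible) control, selected with Hygromycin and Blasticidin.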

Row | pEC50 [1] | pIC50 [2] | pEC50 [3] | pIC50 [4] | pIC50 [5] | pIC50 [6] | Compound
1 | < 4.60 | < 4.60 | < 4.60 | < 4.60 | < 4.60 | < 4.60 | CCc1nc(NC(=O)[C@@H]2CCCN2Cc2ccncc2)sc1C [Compound B26, (S)-N-(4-ethyl-5-methylthiazol-2-yl)-1-(pyridin-4-ylmethyl)pyrrolidine-2-carboxamide]
2 | < 4.60 | < 4.60 | < 4.60 | < 4.60 | < 4.60 | < 4.60 | CC(C)(C)c1csc(NC(=O)c2cccn2Cc2ccccc2)n1 [Compound B27, 1-benzyl-N-(4-(tert-butyl)thiazol-2-yl)-1H-pyrrole-2-carboxamide]
